Patent US5656603A (Loyola University of Chicago, priority 1995, dated 1997)
Where two headings read alike, the source gives them in different places.

Experiments:
[1] = molecular target: T1, aminopeptidase A (EC 3.4.11.7) (Rattus norvegicus, UniProt P50123); assay: Specificity of apstatin: aminopeptidase A; assay type: biochemical; details: rat lung microsomes; α-Glu-β-Na, pH 6.8, HPLC-1
T1 construct: aminopeptidase A (EC 3.4.11.7) (rat lung microsomes); from tissue; host or cells: rat lung microsomes
T1 sequence (P50123 whole entry): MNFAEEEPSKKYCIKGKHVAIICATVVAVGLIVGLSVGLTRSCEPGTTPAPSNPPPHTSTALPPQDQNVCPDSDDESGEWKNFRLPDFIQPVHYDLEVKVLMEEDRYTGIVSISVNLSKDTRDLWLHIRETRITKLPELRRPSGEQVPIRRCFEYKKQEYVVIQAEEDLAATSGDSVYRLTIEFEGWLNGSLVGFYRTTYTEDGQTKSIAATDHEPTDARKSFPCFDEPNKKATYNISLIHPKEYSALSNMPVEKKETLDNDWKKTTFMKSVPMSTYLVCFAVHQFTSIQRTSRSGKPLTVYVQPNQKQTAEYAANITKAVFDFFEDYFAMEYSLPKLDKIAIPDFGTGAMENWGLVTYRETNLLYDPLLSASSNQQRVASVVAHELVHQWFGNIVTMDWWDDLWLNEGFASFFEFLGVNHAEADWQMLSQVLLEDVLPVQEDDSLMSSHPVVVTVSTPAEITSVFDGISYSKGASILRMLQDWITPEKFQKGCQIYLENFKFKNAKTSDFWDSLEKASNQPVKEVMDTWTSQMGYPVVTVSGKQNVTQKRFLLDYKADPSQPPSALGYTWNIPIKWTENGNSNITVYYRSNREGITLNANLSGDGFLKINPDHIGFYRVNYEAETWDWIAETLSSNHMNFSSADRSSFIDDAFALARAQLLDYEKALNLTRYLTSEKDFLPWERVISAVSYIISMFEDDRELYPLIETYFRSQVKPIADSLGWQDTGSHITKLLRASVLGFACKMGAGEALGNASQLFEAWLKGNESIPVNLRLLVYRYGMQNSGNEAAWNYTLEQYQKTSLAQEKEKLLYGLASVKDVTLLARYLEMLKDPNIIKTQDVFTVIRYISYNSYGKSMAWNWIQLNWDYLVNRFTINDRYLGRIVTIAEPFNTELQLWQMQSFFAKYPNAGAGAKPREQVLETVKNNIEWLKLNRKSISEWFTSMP
Method: (§1) Specificity of Apstatin--Apstatin was assayed for its ability to inhibit several other peptidases. […] Unless otherwise indicated, the source of each enzyme activity was a detergent extract of bovine lung prepared as described in (12-13). Activities were determined by a modification of the fluorescent assay described above (indicated by "FLUO") or by HPLC separation and quantitation of reaction products using the method described in (12) (method "HPLC-1") or the method described below (method "HPLC-2"). […]

microsomal dipeptidase = molecular target: T2, microsomal dipeptidase (Rattus norvegicus, UniProt P31430); assay: Specificity of apstatin: microsomal (membrane) dipeptidase; assay type: biochemical; details: purified, rat lung; Gly-D-Phe, pH 8.0, HPLC-1
T2 construct: Membrane dipeptidase was purified from rat lung microsomes; from tissue; host or cells: rat lung microsomes
T2 sequence (P31430 17-410): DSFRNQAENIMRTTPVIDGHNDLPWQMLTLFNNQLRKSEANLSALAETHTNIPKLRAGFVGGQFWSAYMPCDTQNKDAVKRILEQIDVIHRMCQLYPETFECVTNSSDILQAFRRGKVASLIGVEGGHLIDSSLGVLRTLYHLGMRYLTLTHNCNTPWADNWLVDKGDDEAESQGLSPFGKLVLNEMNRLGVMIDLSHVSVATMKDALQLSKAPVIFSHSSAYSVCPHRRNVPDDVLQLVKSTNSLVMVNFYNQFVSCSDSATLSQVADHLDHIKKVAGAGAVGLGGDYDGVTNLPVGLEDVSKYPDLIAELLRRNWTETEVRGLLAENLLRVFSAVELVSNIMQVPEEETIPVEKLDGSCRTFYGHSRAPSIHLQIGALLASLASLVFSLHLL
Excerpt: (§2) Enzymes--Membrane-bound aminopeptidase P was purified to homogeneity from bovine lung (14) and from rat lung. Partially purified membrane-bound aminopeptidase P from human lung was obtained by treatment of lung microsomes with phosphatidylinositol-specific phospholipase C (B. thuringiensis) (ICN, Costa Mesa, Calif.) followed by centrifugation as described previously (14). Membrane dipeptidase was purified from rat lung microsomes (manuscript in preparation). Recombinant E. coli aminopeptidase P (22) and purified lamb kidney prolyl oligopeptidase (23) were generally supplied by Dr. Tadashi Yoshimoto (Nagasaki University). Purified porcine kidney prolidase and purified porcine kidney aminopeptidase M was obtained from Sigma (St. Louis, Mo.).
as §1

prolidase = molecular target: T3, prolidase (Sus scrofa, UniProt A0A5G2QQV1); assay: Specificity of apstatin: prolidase; assay type: biochemical; details: purified, porcine kidney; Arg-Pro, pH 8.0, HPLC-2
T3 construct: Purified porcine kidney prolidase and purified porcine kidney aminopeptidase M was obtained from Sigma; purchased Sigma (St. Louis, Mo.); host or cells: porcine kidney
T3 sequence (A0A5G2QQV1 1-463): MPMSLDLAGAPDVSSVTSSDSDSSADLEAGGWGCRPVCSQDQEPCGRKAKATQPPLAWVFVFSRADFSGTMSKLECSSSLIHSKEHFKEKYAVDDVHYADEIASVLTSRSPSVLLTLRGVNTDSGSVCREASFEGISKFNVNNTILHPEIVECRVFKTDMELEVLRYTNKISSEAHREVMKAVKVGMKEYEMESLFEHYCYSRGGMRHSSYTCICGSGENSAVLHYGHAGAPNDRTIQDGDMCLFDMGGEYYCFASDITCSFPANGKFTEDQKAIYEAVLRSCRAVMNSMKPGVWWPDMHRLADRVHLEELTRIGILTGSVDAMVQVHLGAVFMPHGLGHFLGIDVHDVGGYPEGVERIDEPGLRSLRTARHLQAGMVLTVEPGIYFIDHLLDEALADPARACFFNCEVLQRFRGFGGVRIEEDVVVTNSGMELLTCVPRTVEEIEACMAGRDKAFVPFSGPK
Excerpt: as §2, §1

[2] = test system: blood pressure response to Bk; assay: Blood pressure response to intravenous bradykinin in the rat; assay type: in vivo; details: rats; intravenously, administered over a one hour period
Method: While aminopeptidase P appears to be quantitatively less important than ACE, there is now evidence that aminopeptidase P is nevertheless a physiologically important regulator of the blood pressure response to Bk in the rat (15,41). […] Thus, aminopeptidase P appears to play a significant role in the pulmonary degradation of Bk.
See e.g., Table 2. […] A typical therapeutically effective dose of a compound of the present invention is from about 0.008 mg/kg to 8.0 mg/kg, when given intravenously.

[3] = test system: blood pressure response to Bk; details: rat, cited from earlier work

With `C[C@H](NC(=O)[C@@H]1CCCN1C(=O)[C@@H]1CCCN1C(=O)[C@@H](O)[C@H](N)Cc1ccccc1)C(N)=O` [apstatin, N-[(2S, 3R)-3-amino-2-hydroxy-4-phenylbutanoyl]-L-prolyl-L-prolyl-Lalaninamide] as the compound, how does the IC50 [1] read?
The IC50 was > 800 µM.

And the IC50 (microsomal dipeptidase)?
Its IC50 is > 800 µM.

What about the IC50 (prolidase) of the same compound?
Its IC50 is 4.9 µM.

And the “dose at which Bk potentiation has been observed” value [2]?
The value was 0.08 to 0.8 mg/kg.

What about the “effect on blood pressure decrease caused by intravenous administration of Bk” value ([3]; apstatin alone) of the same compound?
Its value is “significantly potentiate the magnitude as well as the duration”.

And the “effect on blood pressure decrease caused by intravenous administration of Bk” value ([3]; apstatin plus lisinopril versus lisinopril alone)?
The value was “more effective in this regard than lisinopril alone”.
